Patent US20250332178A1, “METHODS OF TREATING MYCOBACTERIAL INFECTIONS USING TETRACYCLINE COMPOUNDS” (priority 2018, published 2025)

What was measured:
[1] = test system: M. immunogenum group; assay: MIC (CLSI broth dilution), RGM isolates; type: cell-based; conditions: M. immunogenum
[2] = test system: M. mucogenium group; assay: MIC (CLSI broth dilution), RGM isolates; type: cell-based
[3] = test system: M. fortuitum group; assay: MIC (CLSI broth dilution), RGM isolates; type: cell-based; conditions: Mycolicibacterium fortuitum
[4] = test system: M. smegmatis group; assay: MIC (CLSI broth dilution), RGM isolates; type: cell-based; conditions: Mycolicibacterium smegmatis
[5] = test system: M. abscessus; conditions: strains of M. abscessus; Wallace et al.; cited from earlier work
[6] = test system: M. chelonae; assay: MIC (CLSI broth dilution), RGM isolates; type: cell-based; conditions: Mycobacteroides chelonae
[7] = test system: rapid-growing mycobacteria (RGM) isolates; assay: MIC (CLSI broth dilution), all RGM isolates; type: cell-based, nontuberculous mycobacteria
[8] = test system: Mycobacterium chelonae; assay: MIC by broth microdilution in CAMHB, clinical isolates; type: cell-based
[9] = test system: Mycobacterium abscessus; assay: as above; type: cell-based; conditions: Mycobacteroides abscessus
[10] = test system: Mycobacterium fortuitum; assay: as above; type: cell-based; conditions: Mycolicibacterium fortuitum
[11] = test system: M. abscessus complex; assay: MIC (CLSI broth dilution), RGM isolates; type: cell-based; conditions: Mycobacteroides abscessus

CN(C)c1cc(NC(=O)CNC(C)(C)C)c(O)c2c1C[C@H]1C[C@H]3[C@H](N(C)C)C(O)=C(C(N)=O)C(=O)[C@@]3(O)C(O)=C1C2=O [Tigecycline, tigecycline]
0.06 µg/mL: MIC ([2]; isolate 40, M. mucogenicum group, M. mucogenicum) | MIC ([2]; isolate 41, M. mucogenicum group, M. mucogenicum) | MIC ([2]; isolate 44, M. mucogenicum group, M. phocaicum) | MIC ([2]; isolate 46, M. mucogenicum group, M. phocaicum) | MIC ([3]; isolate 31, M. fortuitum group, M. senegalense) | MIC50 [8] | MIC ([9]; isolate No. 4, BB3) | MIC ([10]; isolate No. 3, 2797) | MIC ([10]; isolate No. 9, 38) | MIC ([11]; isolate 11, M. abscessus complex, erm gene type Type 6 abscessus) | MIC ([11]; isolate 15, M. abscessus complex, erm gene type Type 7 abscessus)
8 µg/mL: MIC ([9]; isolate No. 19, 5960)
0.12 µg/mL: MIC ([1]; isolate 36, M. immunogenum group) | MIC ([2]; isolate 39, M. mucogenicum group, M. mucogenicum) | MIC ([2]; isolate 42, M. mucogenicum group, M. mucogenicum) | MIC ([2]; isolate 43, M. mucogenicum group, M. phocaicum) | MIC ([3]; isolate 24, M. fortuitum group, M. fortuitum) | MIC ([6]; isolate 18, M. chelonae) | MIC ([6]; isolate 20, M. chelonae) | MIC ([11]; isolate 1, M. abscessus complex, erm gene type MAB30) | MIC ([11]; isolate 2, M. abscessus complex, erm gene type MAB30) | MIC ([11]; isolate 6, M. abscessus complex, erm gene type Type 1 abscessus) | MIC ([11]; isolate 8, M. abscessus complex, erm gene type Type 1 abscessus) | MIC ([11]; isolate 10, M. abscessus complex, erm gene type Type 1 abscessus) | MIC ([11]; isolate 12, M. abscessus complex, erm gene type Type 6 abscessus) | MIC ([11]; isolate 14, M. abscessus complex, erm gene type Type 6 abscessus) | MIC ([11]; isolate 16, M. abscessus complex, erm gene type Type 7 abscessus) | MIC ([11]; isolate 17, M. abscessus complex, erm gene type Type 8 abscessus)
2 µg/mL: MIC90 [9] | MIC ([9]; isolate No. 1, BB2) | MIC ([9]; isolate No. 2, BB4) | MIC ([9]; isolate No. 6, 5908) | MIC ([9]; isolate No. 7, BB7)
good activity: in vitro activity (in words) [5]
0.03 µg/mL: MIC ([2]; isolate 48, M. mucogenicum group, M. phocaicum) | MIC ([3]; isolate 23, M. fortuitum group, M. fortuitum) | MIC ([3]; isolate 27, M. fortuitum group, M. porcinum) | MIC ([3]; isolate 28, M. fortuitum group, M. porcinum/M. boenickei) | MIC ([3]; isolate 29, M. fortuitum group, M. porcinum/M. boenickei) | MIC ([3]; isolate 30, M. fortuitum group, M. porcinum/M. boenickei) | MIC ([3]; isolate 32, M. fortuitum group, M. senegalense) | MIC ([3]; isolate 33, M. fortuitum group, M. senegalense) | MIC ([3]; isolate 34, M. fortuitum group, M. senegalense) | MIC ([4]; isolate 50, M. smegmatis group, M. wolinskyi) | MIC ([10]; isolate No. 8, 54) | MIC ([10]; isolate No. 10, 36)
1 µg/mL: MIC50 [9] | MIC ([9]; isolate No. 8, 6031) | MIC ([9]; isolate No. 16, BB5) | MIC ([9]; isolate No. 23, 6025) | MIC ([10]; isolate No. 17, 3442)
≤ 0.015 µg/mL: MIC ([3]; isolate 25, M. fortuitum group, M. fortuitum) | MIC ([3]; isolate 26, M. fortuitum group, M. porcinum) | MIC ([4]; isolate 49, M. smegmatis group, M. goodii)
0.015 µg/mL: MIC ([10]; isolate No. 2, 3499) | MIC ([10]; isolate No. 6, 3489) | MIC ([10]; isolate No. 7, 3491)
0.5 µg/mL: MIC ([1]; isolate 35, M. immunogenum group) | MIC ([1]; isolate 37, M. immunogenum group) | MIC ([1]; isolate 38, M. immunogenum group) | MIC ([6]; isolate 21, M. chelonae) | MIC ([9]; isolate No. 9, 5785) | MIC ([9]; isolate No. 11, 6111) | MIC ([9]; isolate No. 12, 6005) | MIC ([10]; isolate No. 14, 7484) | MIC ([10]; isolate No. 20, 2491)
0.25 µg/mL: MIC ([2]; isolate 45, M. mucogenicum group, M. phocaicum) | MIC ([2]; isolate 47, M. mucogenicum group, M. phocaicum) | MIC ([6]; isolate 19, M. chelonae) | MIC ([6]; isolate 22, M. chelonae) | MIC90 [7] | MIC ([9]; isolate No. 3, 5922) | MIC50 [10] | MIC90 [10] | MIC ([10]; isolate No. 1, 3349) | MIC ([10]; isolate No. 4, 32) | MIC ([10]; isolate No. 11, 3480) | MIC ([10]; isolate No. 12, 3126) | MIC ([10]; isolate No. 13, 3579) | MIC ([10]; isolate No. 15, 3488) | MIC ([10]; isolate No. 16, 3276) | MIC ([10]; isolate No. 18, 3316) | MIC ([10]; isolate No. 19, 3490) | MIC ([11]; isolate 3, M. abscessus complex, erm gene type MAB30) | MIC ([11]; isolate 4, M. abscessus complex, erm gene type massiliense) | MIC ([11]; isolate 5, M. abscessus complex, erm gene type massiliense/subsp. abs hybrid) | MIC ([11]; isolate 7, M. abscessus complex, erm gene type Type 1 abscessus) | MIC ([11]; isolate 9, M. abscessus complex, erm gene type Type 1 abscessus) | MIC ([11]; isolate 13, M. abscessus complex, erm gene type Type 6 abscessus)
0.125 µg/mL: MIC50 [7] | MIC ([9]; isolate No. 5, BB6) | MIC ([10]; isolate No. 5, 33)
